Results as given in US9034906B2, “EP4 agonist” (Asahi Glass Company, Limited, priority 2008, dated 2015).

Tests used:
[1] = Effect on blood pressure and heart rate in mice; format: in vivo, mouse; conditions: ICR mice, intravenous 0.01 mg/kg, isoflurane anesthesia
Description: Male ICR mice (5 weeks old, Japan SLC) were purchased, acclimated for 6 days and used for the test. The animals were treated and measured under isoflurane inhalation anesthesia (anesthesia introduced at 2.5%, maintained at 1.8-2.1%), while body temperature was kept at 37° C. with a Heat Controller (ATC-402, Unique Medical Co., Ltd.). A catheter for administration of test compounds was inserted into the left femoral vein, and another catheter was inserted into the right femoral artery and connected to a pressure transducer to record each parameter of hemodynamics.
Compound F, the carboxylate form of compound F and BPS were intravenously administered at a dose of 0.01 mg/5 mL/kg, and the effect on the mean blood pressure and heart rate was evaluated with computer software for the analysis of hemodynamics (Fluclet, Dainippon Sumitomo Pharma Co., Ltd.). To the control group was intravenously administered a solvent (1.2% ethanol solution) at 5 mL/kg in the same manner. The results are expressed as a ratio of change in each parameter before and after the drug administration. Three to 6 animals were used for each group, and the results were expressed as average±standard deviation.

[2] = system: dextran sodium sulfate-induced colitis; experiment: Dextran sodium sulfate-induced colitis model in mice (C57BL/6); format: in vivo, mouse; conditions: C57BL/6 mice, DSS, oral 0.3 mg/kg once a day
Description: Whether or not an IP agonist has an effect on such colitis model was determined using a selective IP agonist, BPS.
Female C57BL/6 mice (6 weeks old, Japan SLC) were purchased, acclimated for 1 week and used for the study. Except the normal group, the mice were allowed to freely drink a 3 or 2 w/v % DSS (MP Biochemicals, Lot No. 5653H and 5464H, respectively) solution for 1 week to induce colitis. BPS at a dose of 0.3 mg/kg and compound F at doses of 0.3 and 1 mg/kg were orally administered once a day, daily, from the start day of DSS drinking (day 0) to one day before autopsy (day 9). To the control group was orally administered a solvent (1 vol % ethanol solution) at 10 mL/kg in the same manner. The consistency of the stool was graded from score 0 to 4, with normal (0), partly loose stool (1), loose stool (2) and diarrhea (4). The blood feces was also graded from score 0 to 4, with normal (0), partly blood feces (1), blood feces (2) and blood feces plus proctorrhagia (4). The sum of both grades was defined as the stool score (maximum 8). Furthermore, the length of the large intestine was measured in the same manner as in Example 23. Six to 10 animals were used for each group, and the results are shown in average±standard deviation.

[3] = system: anti-Thy-1 antibody-induced glomerulonephritis; experiment: Anti-Thy-1 antibody-induced glomerulonephritis model in rats; format: in vivo, rat; conditions: Wistar rats, oral 0.3 mg/kg twice a day
Description: Male Slc: Wistar rats (6 weeks old, Japan SLC) were purchased, acclimated for 1 week and used for the study. Except the normal group, anti-Thy-1 antibody (mouse anti-CD90 antibody (UK-Serotech Ltd. Code:MCA47XZ, clone No: MRC OX-7, Lot No. 0303)) was administered once intravenously to the animals. A mixture of compound F and compound J (F:J=52:41, indicated as compound F/J) was orally administered from the day of the antibody administration (day 0) to day 6, daily, twice a day (morning and evening; each 0.3 mg/kg). After 3 days from the antibody administration, urine was collected for one day. On day 7 of the antibody administration, the animal was autopsied. The right kidney was isolated, weighed and fixed with formalin. Five to 8 animals were used for each group and the results were expressed as average±standard deviation.

human EP4 = target: T1, human EP4 (Homo sapiens, UniProt P35408); experiment: Receptor affinity, tritium-labeled PGE2 binding to membranes of transfected COS-7 cells; conditions: binding affinity ratio
T1 construct: expressed in transfected cells; host or cells: COS-7 (membranes)
Description: PG receptor affinity of compound F and compound J of the present invention was evaluated. Compound F used was one synthesized in Example 9, and compound J was prepared by separating and purifying the compound synthesized in Example 14 with a column (the same preparations were used in the following Examples). COS-7 cells were transfected with the genes of mouse EP4, human EP1-4 or human IP to overexpress the receptor and then the cell membranes were collected. […] The dissociation constant Kd value was obtained and inhibition constant Ki value of each test compound was determined in a conventional method.

[4] = In vitro metabolic stability: NADPH-independent β oxidation reaction in rat liver mitochondria fraction; format: in vitro ADME; conditions: 37° C., 30 min, tested as isomer mixtures, average±SD of 3 experiments
Description: A mixture of the compound F and compound J of the present invention described in Table 1 (F:J=52:41, synthesized in Example 14), and a mixture of compounds wherein the tetrazole groups at C-1 of compound F and compound J are respectively substituted by carboxylic acid (referred to as carboxylate form, F:J=54:34, synthesized in Example 15) were tested.
First, a mitochondria fraction was prepared from the rat liver according to the following Reference A. Then, in reference to the method of […] et al. described in the following References B and C, an NADPH-independent β oxidation reaction was studied. The reaction was carried out at 37° C. for 30 min, and stopped with a methanol solution containing a suitable internal standard substance. Each compound was quantified by the internal standard method using a high performance liquid chromatography mass spectrometry apparatus (LC-MS/MS). The compound residual ratio after metabolic reaction of compounds F, J and each carboxylate form thereof in rat mitochondria fraction is shown in the following Table 2 in average±standard deviation of 3 experiments.

[5] = system: dextran sodium sulfate-induced colitis; experiment: Remission/relapse model of dextran sodium sulfate-induced colitis in mice, therapeutic; format: in vivo, mouse; conditions: compound F 1 mg/kg, SASP 100 mg/kg, oral once a day for 50 days
From the text: Next, therapeutic effect of compound F on colitis was studied in a chronic model. Female BALB/c mice, 6 weeks old, body weight about 20 g (Japan SLC) were purchased, acclimated for 1 week and used for the study. The mice were divided into a colitis induction group and a normal group. The colitis induction group was allowed to freely drink a 2.6 w/v % DSS (MP Biochemicals, M.W. 36,000-50,000, Lot No. 4556J) solution to induce colitis. On day 8 when the stool score (defined in Example 23) of the colitis induction group reached about 4.5, the mice were subdivided into a control group, a compound F 1 mg/kg administration group and a salazosulfapyridine (SIGMA, Lot No. 085K1930, hereinafter to be abbreviated as SASP) 100 mg/kg administration group. Then the mice were allowed to freely drink distilled water instead of DSS solution for 9 days (remission period). After the grouping, the stool score was evaluated every 3-4 days. […]
Compound F at a dose of 1 mg/kg and SASP at a dose of 100 mg/kg were orally administered once a day, daily, for 50 days from the initial remission period (day 8 from the start of 2.6 w/v % DSS drinking) to the fifth remission period (day 57 from the start of 2.6 w/v % DSS drinking). […] The remission ratio (%) was calculated as a ratio of mice in remission in each group. […]

[6] = system: concanavalin A-induced hepatitis; experiment: Concanavalin A-induced hepatitis model in mice, prophylactic; format: in vivo, mouse; conditions: BALB/c mice, oral 1 hr before Con A; compound F 1 mg/10 mL/kg, prednisolone 5 mg/10 mL/kg
Description: The prophylactic effect of compound F on hepatitis was investigated using concanavalin A (hereinafter Con A)-induced hepatitis model.
BALB/c mice (female, 7 weeks old, Japan SLC) were purchased, acclimated for 1 week and used for the study. Except the no-induction group, Con A (type IV, Sigma-Aldrich) dissolved in saline was administered from the tail vein of the mice at a dose of 12.5 mg/10 mL/kg to induce hepatitis. Twenty hr later, the mice were subjected to laparotomy under ether anesthesia. A 0.5 mL of blood sample was collected from the caudal vena cava and heparinized plasma was obtained to measure plasma ALT and AST activities. Test substances were compound F (1 mg/10 mL solution), prednisolone (Nacalai Tesque, 5 mg/10 mL suspension (with 0.5 w/v % methylcellulose)) and water for injection (administered to the control group), which were orally administered at a volume of 10 mL/kg 1 hr before Con A injection. Seven to 9 animals were used for each group. After logarithmic transformation of the data, one-way analysis of variance was performed for statistical evaluation.

T cell transfer colitis = experiment: CD4+CD25- T cell transfer colitis model in mice; format: in vivo, mouse; conditions: C.B-17/Icr-scid mice, oral 1 mg/kg once a day
From the text: The effect on Crohn's disease, another type of inflammatory bowel disease, was studied. T cell transfer model is well known as a Crohn's disease model, which develops chronic […] or enteritis (see: References F, G, H). In addition, it can also be regarded as an animal model of intestinal Behcet's disease or simple ulcer, suffering from similar intestinal ulcer accompanied by activation of T cells (see: References I, J).
Female BALB/cA Jcl mice, 6 weeks old, body weight 19-23 g (CLEA Japan, Inc.) and female C.B-17/Icr-scid mice (6 weeks old, CLEA Japan, Inc.) were purchased, acclimated for 1 week and used for the study.
After laparotomy under ether anesthesia, BALB/cA Jcl mice were exsanguinated to death through the abdominal aorta and caudal vena cava, and the spleen was isolated. Splenocytes were prepared from the spleen and then CD4^+CD25^− T cells were prepared with a CD4^+ T cell Isolation Kit (No. 130-090-860, Milky Biotech Co., Ltd.) and CD25-Biotin antibody (No. 130-092-569, Milky Biotech Co., Ltd.). The cells were separated using the autoMACS Separator (Milky Biotech Co., Ltd.). The separated CD4^+CD25^− T cells were suspended in physiological phosphate buffer solution, and 2.5×10^5 cells per animal were intraperitoneally administered to C.B-17/Icr-scid mice to induce colitis.
One mg/kg of compound F or prednisolone was initially administered at 5 hr before transfer of CD4^+CD25^− T cells, and orally administered thereafter once a day, daily, for 20 days. To the control group was orally administered a solvent (1 vol % ethanol solution) at 10 mL/kg. A clinical endpoint was the sum of stool consistency score (0-5), fecal occult blood score (0-4) and body weight decrease score (0-5), termed as the Disease Activity Index score (hereinafter to be abbreviated as DAI score: highest score 14). The stool consistency score was graded for the hardness of stool as normal (0), slightly loose (1), somewhat loose (2), loose (3), considerably loose (4) and diarrhea (5). The fecal occult blood score was evaluated in the same manner as in Example 23. The body weight decrease score was graded for the changes in the body weight as increase (0), decrease of less than 3% (1), decrease of not less than 3% and less than 6% (2), decrease of not less than 6% and less than 9% (3), decrease of not less than 9% and less than 12% (4), and decrease of not less than 12% (5). Eight to 10 mice were used for each group and the results were expressed as average.

T1 sequence (P35408 whole entry): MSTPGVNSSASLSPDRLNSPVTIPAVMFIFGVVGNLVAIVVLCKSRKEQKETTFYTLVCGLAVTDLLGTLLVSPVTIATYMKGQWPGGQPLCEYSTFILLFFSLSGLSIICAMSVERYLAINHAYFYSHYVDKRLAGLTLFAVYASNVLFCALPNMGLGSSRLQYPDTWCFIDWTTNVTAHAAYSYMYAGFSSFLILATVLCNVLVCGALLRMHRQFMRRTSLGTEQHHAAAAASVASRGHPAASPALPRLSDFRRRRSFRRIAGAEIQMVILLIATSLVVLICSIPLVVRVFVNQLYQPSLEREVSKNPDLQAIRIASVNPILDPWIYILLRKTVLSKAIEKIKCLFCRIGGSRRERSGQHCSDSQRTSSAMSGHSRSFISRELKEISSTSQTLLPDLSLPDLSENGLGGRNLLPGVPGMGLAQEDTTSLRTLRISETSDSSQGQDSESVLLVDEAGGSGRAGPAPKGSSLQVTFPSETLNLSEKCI

**Q.** With `CC#CCC(C)[C@H](O)/C=C/[C@@H]1[C@H]2c3cccc(CCCC(=O)O)c3O[C@H]2C[C@H]1O` (mixture of isomers) [BPS, beraprost sodium, reference compound] as the molecule, how does the “Effect on heart rate” value [1] read?
**A.** on the increase and remained high even after 10 min

**Q.** What about the “Maximum decrease ratio of mean blood pressure” value [1] of the same molecule?
**A.** 38%

**Q.** And the “Effect on shortening of the large intestine” value [2]?
**A.** no effect

**Q.** What about the “Effect on stool score” value [2] of the same molecule?
**A.** tendency toward aggravation

**Q.** Which results are given for `Cc1cccc(C(C)[C@H](O)/C=C/[C@@H]2[C@@H]3[C@H](C[C@H]2O)O/C(=C\CCCc2nnn[nH]2)C3(F)F)c1` (mixture of isomers) [compound F/J, 4-[(Z)-(1S,5R,6R,7R)-6-[(1E,3R,4RS)-3-hydroxy-4-(m-tolyl)-1-pentenyl]-7-hydroxy-2-oxa-4,4-difluoro-bicyclo[3.3.0]octan-3-ylidene]-1-(tetrazol-5-yl)butane]?
**A.** 24-hr urine protein [3]: lower value than control; 24-hr urine volume [3]: of the same level as the normal group; Body weight [3]: shift similar to that of the control group; Relative kidney weight [3]: lower than control and near the normal; Renal histopathology: total glomerular cells, mesangial region and PCNA-positive cells in the glomerulus [3]: significantly suppressed the increase

**Q.** With `Cc1cccc([C@H](C)[C@H](O)/C=C/[C@@H]2[C@@H]3[C@H](C[C@H]2O)O/C(=C\CCCc2nnn[nH]2)C3(F)F)c1` [Compound J, 4-[(Z)-(1S,5R,6R,7R)-6-[(1E,3R,4S)-3-hydroxy-4-(m-tolyl)-1-pentenyl]-7-hydroxy-2-oxa-4,4-difluoro-bicyclo[3.3.0]octan-3-ylidene]-1-(tetrazol-5-yl)butane] as the molecule, how does the “Affinity for human EP4 higher than to human IP” value (human EP4) read?
**A.** 40 fold

**Q.** What about the “Residual ratio of parent compound after β-oxidation reaction” value [4] of the same molecule?
**A.** 90.1 ± 6.9%

**Q.** For `O=C(O)c1cc(/N=N/c2ccc(S(=O)(=O)Nc3ccccn3)cc2)ccc1O` [SASP, salazosulfapyridine, reference compound], which “Effect on stool score in remission and relapse periods” value [5] is on record?
**A.** did not show a clear effect

**Q.** What does the source list for `C[C@]12C=CC(=O)C=C1CC[C@@H]1[C@@H]2[C@@H](O)C[C@@]2(C)[C@H]1CC[C@]2(O)C(=O)CO` [prednisolone, reference compound]?
**A.** Effect on increase of plasma ALT and plasma AST activities [6]: significantly and strongly suppressed the increase; Effect on body weight decrease score (T cell transfer colitis): clearly worsened the score; Effect on fecal occult blood score (T cell transfer colitis): suppressed an increase in the fecal occult blood score by almost the same level as the compound F administration; Effect on stool consistency score (T cell transfer colitis): failed to show a clear effect
